Source: patent publication US4490388A, “Amidine compound and anticomplement agent comprising same” (Torii & Co., Ltd., priority 1981, dated 1984)
“And” between values parts separate entries of the source, which are not always exact repeats. Equal values may be shown once. Read-outs that look alike come from different tables or passages of the source.

Legend:
[1] = test system: complement; assay: Inhibition of complement mediated hemolysis; assay type: cell-based; details: read-out: Inhibition of complement mediated hemolysis (%)
Procedure: The complement mediated hemolysis is widely used as a means to determine the titration of complement. The principle of this method is based on the fact that hemolysis is caused by the activation of complement, when the latter is added to a complex (immune complex) of erythrocytes and the autibody thereof. The degree of hemolysis varies in proportion to the amount of complement added. Therefore, when a known amount of complement admixed with a C1 esterase inhibitor is used, the hemolysis must be suppressed in proportion to the inhibitory activity.
The anti-C1 esterase (C1r, C1s) activity was determined according to the method of Okamura et al. [K. Okamura, M. Muramatsu and B. Fujii, Biochem. Biophys. […] The inhibition of complement mediated hemolysis was determined according to the method of Baker et al. [B. R. Baker and E. H. Erickson, J. Med. Chem., 12, 408-414 (1969)].

[2] = Toxicity, median lethal dose (LD50); details: in vivo
[3] = target: Thrombin (Bos taurus, UniProt P00735); assay: Anti-thrombin activity (hydrolysis of TAME); assay type: biochemical
Procedure: (§1) The anti-trypsin, anti-plasmin, anti-kallikrein and anti-thrombin activities were determined according to the method of Muramatsu et al. [M. Muramatsu, T. Onishi, S. Makino, Y. Hayashi and S. Fujii, J. of Biochem., 58, 214 (1965)]. The data summarized in Table 1 are expressed in terms of molar concentration (id50) of the test compound which inhibits 50% of the activity of each enzyme to hydrolyze TAME (tosylarginine methyl ester). The compound No. corresponds to the compound number shown in Examples.

[4] = target: T1, Trypsin (Bos taurus, UniProt P00760); assay: Anti-trypsin activity (hydrolysis of TAME); assay type: biochemical
T1 sequence (P00760 24-246): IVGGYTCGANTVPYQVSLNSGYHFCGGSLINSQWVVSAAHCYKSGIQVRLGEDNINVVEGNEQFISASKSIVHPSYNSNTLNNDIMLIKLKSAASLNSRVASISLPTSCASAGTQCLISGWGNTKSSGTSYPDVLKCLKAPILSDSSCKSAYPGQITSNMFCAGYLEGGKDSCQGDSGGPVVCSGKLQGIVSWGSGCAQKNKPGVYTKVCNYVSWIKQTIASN
Procedure: as §1

[5] = target: Plasmin (Homo sapiens, UniProt P00747); assay: Anti-plasmin activity (hydrolysis of TAME); assay type: biochemical
Procedure: as §1

[6] = target: T2, C1r (Homo sapiens, UniProt P00736); assay: Anti-C1 esterase activity, C1r (hydrolysis of AAME); assay type: biochemical; details: for IC50: molar concentration inhibiting 50% of AAME hydrolysis, read-out: Anti-C1 activity, C1r id50; for inhibition at 10 µM: at 1×10^-5 M, read-out: Anti-C1 activity, C1r percent inhibition
T2 sequence (P00736 464-705 limits assumed): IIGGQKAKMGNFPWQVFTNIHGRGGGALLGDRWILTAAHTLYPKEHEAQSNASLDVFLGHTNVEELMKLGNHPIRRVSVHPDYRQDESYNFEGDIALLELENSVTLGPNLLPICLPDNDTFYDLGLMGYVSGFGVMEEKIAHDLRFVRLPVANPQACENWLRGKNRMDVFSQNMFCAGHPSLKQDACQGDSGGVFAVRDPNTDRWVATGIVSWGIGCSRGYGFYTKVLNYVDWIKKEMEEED
T2 sequence (P00736 18-463 partner limits assumed): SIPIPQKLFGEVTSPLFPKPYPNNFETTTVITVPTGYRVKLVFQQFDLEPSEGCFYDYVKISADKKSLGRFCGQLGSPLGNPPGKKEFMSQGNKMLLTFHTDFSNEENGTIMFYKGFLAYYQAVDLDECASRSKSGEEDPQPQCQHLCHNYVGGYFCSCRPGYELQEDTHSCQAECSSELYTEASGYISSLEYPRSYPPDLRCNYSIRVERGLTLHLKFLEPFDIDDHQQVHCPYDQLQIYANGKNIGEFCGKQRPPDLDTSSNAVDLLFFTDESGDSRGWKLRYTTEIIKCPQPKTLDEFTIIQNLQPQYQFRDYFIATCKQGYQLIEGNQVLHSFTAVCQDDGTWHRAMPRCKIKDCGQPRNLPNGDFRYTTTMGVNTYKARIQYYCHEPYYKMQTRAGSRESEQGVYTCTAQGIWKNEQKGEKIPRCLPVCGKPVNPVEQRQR
Procedure: The anti-C1 esterase (C1r, C1s) activity was determined according to the method of Okamura et al. [K. Okamura, M. Muramatsu and B. Fujii, Biochem. Biophys. […] The figures in Table 2 have the following meanings:
C1r: Molar concentration of the test compound which inhibits 50% of the ability of C1r to hydrolyse AAME (acetylarginin methyl ester) (id50).

[7] = target: T3, C1s (Homo sapiens, UniProt P09871); assay: Anti-C1 esterase activity, C1s (hydrolysis of ATEE); assay type: biochemical
T3 sequence (P09871 438-688 limits assumed): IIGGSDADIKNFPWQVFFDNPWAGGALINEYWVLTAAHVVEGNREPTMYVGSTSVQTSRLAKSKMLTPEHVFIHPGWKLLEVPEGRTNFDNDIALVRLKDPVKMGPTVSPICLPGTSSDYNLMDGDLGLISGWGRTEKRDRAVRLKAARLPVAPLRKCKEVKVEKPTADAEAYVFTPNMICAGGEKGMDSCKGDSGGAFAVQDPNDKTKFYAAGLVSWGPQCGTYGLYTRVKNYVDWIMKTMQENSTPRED
T3 sequence (P09871 16-437 partner limits assumed): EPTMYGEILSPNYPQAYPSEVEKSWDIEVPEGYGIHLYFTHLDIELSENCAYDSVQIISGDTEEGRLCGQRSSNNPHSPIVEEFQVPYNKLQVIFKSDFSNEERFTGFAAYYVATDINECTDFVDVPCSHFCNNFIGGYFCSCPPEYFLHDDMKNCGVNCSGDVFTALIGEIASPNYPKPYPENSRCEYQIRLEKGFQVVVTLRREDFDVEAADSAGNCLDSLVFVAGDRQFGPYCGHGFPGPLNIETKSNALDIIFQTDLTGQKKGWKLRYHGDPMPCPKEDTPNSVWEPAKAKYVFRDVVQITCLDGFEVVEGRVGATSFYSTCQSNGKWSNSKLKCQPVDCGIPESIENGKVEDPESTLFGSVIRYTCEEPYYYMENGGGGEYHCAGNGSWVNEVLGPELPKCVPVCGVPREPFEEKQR
Procedure: The anti-C1 esterase (C1r, C1s) activity was determined according to the method of Okamura et al. [K. Okamura, M. Muramatsu and B. Fujii, Biochem. Biophys. Acta, 295, 252-257 (1973)]. The inhibition of complement mediated hemolysis was determined according to the method of Baker et al. [B. R. Baker and E. H. Erickson, J. Med. Chem., 12, 408-414 (1969)]. The figures in Table 2 have the following meanings:
C1s: Molar concentration of the test compound which inhibits 50% of the ability of C1s to hydrolyse ATEE (acetyltyrosin ethyl ester).

[8] = test system: Forssman shock; assay: Forssman shock (survival time after hemolysin); assay type: in vivo, guinea pig (male Hartlay); details: for time elapsed until death, average: control average 361 sec.
Text: Quite different from other animals, guinea pig has on the surface of its organs a specific antigen called Forssman antigen which specifically reacts with the antibody of sheep erythrocyte. Forssman shock is based on the above principle and is a shock caused by the administration of antibody of sheep erythrocyte to a guinea pig. The Forssman shock was investigated in detail by many researches and it was definitely shown that this shock is a model case where the complement plays the principal part and that the shock is associated with a classical pathway in which the complement system is activated progressively starting from C1. Since the participation of complement in autoimmune diseases has been established, the Forssman shock can be said to be a useful means for testing a drug for autoimmune diseases. A drug effective for the treatment of Forssman shock is useful as a drug of autoimmune diseases. [Anti-trypsin, anti-plasmin, anti-kallikrein and anti-thrombin activities]
The experiment was performed according to the method of I. G. Offerness et al. [Biochem. Pharmacol., 27 (14), 1873-1878 (1978)]. Male Hartlay guinea pig of about 300 g in body weight was used. Each guinea pig of the control group was administered intravenously with 0.5 ml (minimum dose to cause the shock) of hemolysin (commercial hemolysin, 5,000 U as assayed by the method of Ogata) and the time elapsed until death was observed. For the test group, each guinea pig was administered intravenously with the test compound 5 minutes before the administration of hemolysin and the time (second) elapsed until death was observed.

[9] = molar concentration inhibiting 50% of TAME hydrolysis, read-out: id50, Plasmin
[10] = molar concentration inhibiting 50% of TAME hydrolysis, read-out: id50, Trypsin

Plasmin, sequence (P00747 581-810 limits assumed): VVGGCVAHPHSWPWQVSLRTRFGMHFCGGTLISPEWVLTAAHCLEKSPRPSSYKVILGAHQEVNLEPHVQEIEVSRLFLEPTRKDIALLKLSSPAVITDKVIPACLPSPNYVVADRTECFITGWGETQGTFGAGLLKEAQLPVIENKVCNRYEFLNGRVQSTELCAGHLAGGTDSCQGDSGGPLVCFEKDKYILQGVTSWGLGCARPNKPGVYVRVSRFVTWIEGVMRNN
Plasmin, sequence (P00747 97-580 partner limits assumed): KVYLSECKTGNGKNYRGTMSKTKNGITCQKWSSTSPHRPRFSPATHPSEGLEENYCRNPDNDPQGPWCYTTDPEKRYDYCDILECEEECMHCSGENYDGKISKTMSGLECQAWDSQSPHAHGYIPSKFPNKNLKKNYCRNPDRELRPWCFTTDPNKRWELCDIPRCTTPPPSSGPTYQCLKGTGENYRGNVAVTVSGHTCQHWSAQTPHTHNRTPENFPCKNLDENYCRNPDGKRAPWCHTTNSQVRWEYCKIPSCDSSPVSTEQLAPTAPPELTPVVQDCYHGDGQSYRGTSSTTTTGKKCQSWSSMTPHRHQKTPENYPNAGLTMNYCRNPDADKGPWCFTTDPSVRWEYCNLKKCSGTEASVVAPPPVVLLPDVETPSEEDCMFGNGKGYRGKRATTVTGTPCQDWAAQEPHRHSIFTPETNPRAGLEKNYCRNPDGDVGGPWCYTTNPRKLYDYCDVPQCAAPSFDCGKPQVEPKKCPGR

SMILES	inhibition at 100 µM ([1]; 1 × 10^-4 M) [%]	inhibition at 10 µM ([1]; 1 × 10^-5 M) [%]	inhibition at 1 µM ([1]; 1 × 10^-6 M) [%]	inhibition at 0.1 µM ([1]; 1 × 10^-7 M) [%]	inhibition at 0.1 µM [1] [%]	IC50 [3] [µM]	IC50 [5, 9] [µM]	IC50 [6] [µM]	IC50 [4, 10] [µM]	inhibition at 10 µM [6] [%]	inhibition at 1 µM [1] [%]	inhibition at 100 µM [1] [%]	also measured
N=C(N)C=Cc1ccc(OC(=O)c2ccc(CN)cc2)cc1 [Compound 34]	100	99	99	86	–	–	–	–	–	–	–	–	LD50 ([2]; ip): 200 mg/kg; LD50 ([2]; po): 2500 mg/kg
CSc1ccc(C(=O)Oc2ccc(C=CC(=N)N)cc2)cc1 [Compound 28]	97	71	34	–	23	3	1	0.9	–	–	–	–	inhibition at 10 µM ([4]; at 1×10^-5 M, read-out: percentage inhibition, Trypsin): 26%
N=C(N)C=Cc1ccc(OC(=O)C=Cc2cccc(C(F)(F)F)c2)cc1 [Compound 41]	71	10	10	0	–	> 10	3	–	3	20	–	–	–
N=C(N)C=Cc1ccc(OC(=O)Cc2ccccc2)cc1 [Compound 13, 4-(β-amidinoethenyl)phenyl phenylacetate]	–	–	–	–	0	5	–	–	–	21	6	99	inhibition at 10 µM [1]: 31%; IC50 [4]: 1 µM; IC50 [5]: 10 µM
N=C(N)C=Cc1ccc(OC(=O)c2ccc(C=O)cc2)cc1 [Compound 30]	99	94	62	–	45	0.6	0.6	1	4	–	–	–	–
N=C(N)C=Cc1ccc(OC(=O)c2ccc(OCc3ccccc3)cc2)cc1 [Compound 26]	38	14	6	0	–	> 10	> 10	–	0.2	37	–	–	–
CCCCCCC(=O)Oc1ccc(C=CC(=N)N)cc1 [Compound 3]	–	75	–	0	–	> 10	> 10	–	> 10	28	–	98	–
Cc1ccc(C(=O)Oc2ccc(C=CC(=N)N)cc2)cc1 [Compound 20]	97	75	38	17	–	> 10	4	1	0.03	–	–	–	–
N=C(N)C=Cc1ccc(OC(=O)CCc2ccccc2)cc1 [Compound 15]	–	10	–	0	–	> 10	> 10	–	2	10	2	80	–
N=C(N)C=Cc1ccc(OC(=O)CCCCCNC(=N)N)cc1 [Compound 9, 4-(β-amidinoethenyl)phenyl 6-guanidinocaproate]	97	72	–	0	–	> 10	> 10	–	0.03	28	6	–	–
N=C(N)C=Cc1ccc(OC(=O)c2ccccc2)cc1 [Compound 12, 4-(β-amidinoethenyl)-phenyl benzoate]	100	100	54	11	–	3	2	0.8	0.6	–	–	–	IC50 [7]: 0.3 µM
N=C(N)C=Cc1ccc(OC(=O)CCCCCN)cc1 [Compound 8, 4-(β-amidinoethenyl)phenyl 6-aminohexanoate]	27	–	9	0	–	> 10	> 10	> 10	2	–	–	–	inhibition at 10 µM [1]: 15%
N=C(N)C=Cc1ccc(OC(=O)c2ccc(NC(=N)N)cc2)cc1 [Compound 35, 4-(β-amidinoethenyl)phenyl 4-guanidinobenzoate]	–	–	–	–	46	1	0.9	4	0.02	–	97	100	inhibition at 10 µM [1]: 100%; time elapsed until death ([8]; 1 mg/kg i.v. 5 minutes before hemolysin, individual animals 1-4): 490 s and 375 s and 255 s and 285 s; time elapsed until death, average ([8]; 1 mg/kg i.v.): 351 s; survival of individual animal ([8]; 3 mg/kg i.v. 5 minutes before hemolysin, animal 2): Survival; time elapsed until death ([8]; 3 mg/kg i.v. 5 minutes before hemolysin, individual animals): 365 s and 4000 s and 690 s; time elapsed until death, average ([8]; 3 mg/kg i.v.): 528 s; IC50 ([7]; molar concentration inhibiting 50% of ATEE hydrolysis, read-out: Anti-C1 activity, C1s id50): 0.3 µM; LD50 ([2]; ip): 133 mg/kg; LD50 ([2]; po): 1200 mg/kg
